Test results: ChEMBL document CHEMBL1201862, “PubChem BioAssay data set” (2004)
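Grown in 96-well plates, cells were treated for 48 hours with each compound at five concentrations. Insufficient inhibition: endpoint recorded as highest concentration tested. Abbreviation: GI50, concentration required for 50% inhibition of growth.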 Calls of active or inactive are those of the source. Cut-off read from the data, not from the text of the source: active = GI50 up to about 1.1 µM and inactive = higher.

Legend:
Experiment in all cases: DTP human tumour cell line panel, 48 h
SF-295 = test system: SF-295
SK-MEL-5 = test system: SK-MEL-5
M14 = test system: M14
OVCAR-3 = test system: OVCAR-3
OVCAR-5 = test system: OVCAR-5
MDA-MB-435 = test system: MDA-MB-435
SNB-75 = test system: SNB-75
NCI-H23 = test system: NCI-H23
KM12 = test system: KM12
NCI-H226 = test system: NCI-H226
EKVX = test system: EKVX
HCT-15 = test system: HCT-15
OVCAR-8 = test system: OVCAR-8
HL-60 = test system: HL-60
NCI/ADR-RES = test system: NCI/ADR-RES
A498 = test system: A498
RPMI-8226 = test system: RPMI-8226
HCT-116 = test system: HCT-116
Hs-578T = test system: Hs-578T
HT-29 = test system: HT-29

Measured: GI50

N#Cc1ccc(NC(=O)C(CC(=O)OCc2ccccc2)NC(=O)OCc2ccccc2)cc1 (centres undefined)
inactive: SF-295 > 10 µM | SK-MEL-5 92 µM | M14 > 10 µM | OVCAR-3 > 10 µM | OVCAR-5 > 10 µM | MDA-MB-435 > 10 µM | SNB-75 > 10 µM | NCI-H23 > 10 µM | KM12 > 10 µM | NCI-H226 > 10 µM | EKVX > 10 µM | OVCAR-8 > 10 µM | HL-60 > 10 µM | NCI/ADR-RES > 10 µM | A498 > 10 µM | RPMI-8226 > 10 µM | HCT-116 > 10 µM | Hs-578T > 10 µM | HT-29 > 10 µM
> 10 µM: HCT-15

Cc1c(-c2ccccc2)cc(O)c2nc3ccccc3n12
6.32 µM: HCT-15
inactive: SF-295 49.8 µM | SK-MEL-5 44 µM | M14 > 100 µM | OVCAR-3 > 100 µM | OVCAR-5 > 100 µM | MDA-MB-435 13.7 µM | SNB-75 7.4 µM | NCI-H23 > 100 µM | KM12 15.6 µM | NCI-H226 > 100 µM | EKVX > 100 µM | OVCAR-8 > 100 µM | HL-60 4.97 µM | NCI/ADR-RES 7 µM | A498 > 100 µM | RPMI-8226 7.43 µM | Hs-578T 55.1 µM | HT-29 > 100 µM

Cc1nc2ccccc2[nH]/c1=N/Nc1ccccc1
18.9 µM: HCT-15
active: HT-29 0.0417 µM
inactive: SF-295 18.6 µM | SK-MEL-5 14 µM | M14 20.2 µM | OVCAR-3 14 µM | OVCAR-5 26.7 µM | MDA-MB-435 14.8 µM | SNB-75 18.1 µM | NCI-H23 18.1 µM | KM12 14.5 µM | NCI-H226 18.3 µM | EKVX 4.17 µM | OVCAR-8 20.3 µM | HL-60 11.7 µM | NCI/ADR-RES 15 µM | A498 31.8 µM | RPMI-8226 8.2 µM | HCT-116 25.8 µM | Hs-578T 31.1 µM

CC(C)Oc1c(-c2ccc(F)cc2)c(O)c2c3c1oc(=O)n3C=CC2C (centres undefined)
inactive: SF-295 15.2 µM | SK-MEL-5 10.8 µM | M14 15.1 µM | OVCAR-3 14.4 µM | OVCAR-5 24.7 µM | MDA-MB-435 17.9 µM | SNB-75 14.8 µM | NCI-H23 11.8 µM | KM12 13.2 µM | NCI-H226 13.9 µM | EKVX 14.3 µM | OVCAR-8 15.8 µM | HL-60 10.4 µM | NCI/ADR-RES 13.8 µM | A498 15 µM | RPMI-8226 6.27 µM | HCT-116 12.9 µM | Hs-578T 20.2 µM | HT-29 16.6 µM
14.9 µM: HCT-15

C=C(C)[C@@H]1CCC2=C[C@H](C/C(C)=C\C3=CC(C)=C(O3)[C@H]1O)OC2=O
inactive: SF-295 80.9 µM | SK-MEL-5 > 100 µM | M14 > 100 µM | OVCAR-3 > 100 µM | OVCAR-5 > 100 µM | MDA-MB-435 > 100 µM | SNB-75 > 100 µM | KM12 > 100 µM | NCI-H226 36.1 µM | EKVX > 100 µM | OVCAR-8 73.8 µM | HL-60 > 100 µM | NCI/ADR-RES > 100 µM | A498 > 100 µM | RPMI-8226 > 100 µM | Hs-578T 65.5 µM
> 100 µM: HCT-15

CC[C@H]1CN(C)[C@H]2Cc3c([nH]c4ccccc34)C(=O)C[C@H]1C2C(=O)OC (some centres undefined)
inactive: SF-295 > 100 µM | SK-MEL-5 > 100 µM | M14 > 100 µM | OVCAR-3 > 100 µM | OVCAR-5 > 100 µM | MDA-MB-435 > 100 µM | NCI-H23 > 100 µM | KM12 > 100 µM | NCI-H226 > 100 µM | EKVX > 100 µM | OVCAR-8 > 100 µM | HL-60 68.9 µM | NCI/ADR-RES > 100 µM | A498 > 100 µM | RPMI-8226 57.8 µM | HCT-116 > 100 µM | Hs-578T > 100 µM | HT-29 > 100 µM
> 100 µM: HCT-15

NP(=O)(Oc1c2occc2cc2ccc(=O)oc12)N(CCCl)CCCl (centres undefined)
inactive: SF-295 > 100 µM | SK-MEL-5 27.9 µM | M14 > 100 µM | OVCAR-3 > 100 µM | OVCAR-5 > 100 µM | MDA-MB-435 > 100 µM | NCI-H23 > 100 µM | KM12 > 100 µM | NCI-H226 74.5 µM | EKVX > 100 µM | OVCAR-8 73.6 µM | HL-60 70.1 µM | NCI/ADR-RES > 100 µM | A498 > 100 µM | RPMI-8226 89.7 µM | HCT-116 > 100 µM | Hs-578T > 100 µM | HT-29 > 100 µM
> 100 µM: HCT-15
